# Data reported in PMC4770093, “The role of kinetic context in apparent biased agonism at GPCRs” (Nature Communications, 2016).
# “And” between values parts separate entries of the source, which are not always exact repeats. Equal values may be shown once. Read-outs that look alike come from different tables or passages of the source.
# Experiments:
# [1] = biological target: T1, D2LR (Homo sapiens, UniProt P14416); test: ERK1/2 phosphorylation assay (Alphascreen SureFire); assay type: cell-based; design: expressed in transfected cells; conditions: for Log(τ/KA) pERK1/2 / ΔLog(τ/KA) pERK1/2: 5 minute timepoint; for Log(τ/KA) pERK1/2: Flp-In-CHO-D2LR; for ΔLog(τ/KA) pERK1/2: dopamine as reference agonist; for alpahscreen assay to detect pERK1/2, counts: agonist 10 μM (cariprazine 1 μM), single experiments n=1 to n=4
# T1 sequence (P14416 whole entry): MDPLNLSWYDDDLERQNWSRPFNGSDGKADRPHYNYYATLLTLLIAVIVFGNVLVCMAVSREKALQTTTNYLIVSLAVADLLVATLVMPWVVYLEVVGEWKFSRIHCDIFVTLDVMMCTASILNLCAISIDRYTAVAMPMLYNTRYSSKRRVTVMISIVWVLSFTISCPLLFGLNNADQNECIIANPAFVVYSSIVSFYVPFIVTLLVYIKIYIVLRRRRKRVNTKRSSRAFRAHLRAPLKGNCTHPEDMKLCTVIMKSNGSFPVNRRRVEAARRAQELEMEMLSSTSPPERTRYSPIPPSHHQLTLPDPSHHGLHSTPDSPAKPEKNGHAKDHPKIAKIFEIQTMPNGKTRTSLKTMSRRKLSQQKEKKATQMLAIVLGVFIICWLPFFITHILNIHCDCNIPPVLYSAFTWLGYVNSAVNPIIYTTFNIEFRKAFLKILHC
# Method: ERK1/2 phosphorylation was measured using the Alphascreen SureFire ERK kit (PerkinElmer, Waltham, USA). Cells were seeded into 96-well plates at a density of 50,000 cells per well. After 5–7 h, cells were washed with PBS and incubated in serum-free DMEM overnight before assaying. Dose–response experiments were performed for each ligand at 37 °C in the presence of 0.1% ascorbic acid. […] The plate was shaken for 5 min at room temperature (RT) before transferring 5 μl of the lysates to a white 384-well Proxiplate (PerkinElmer, Waltham, USA). […] Plates were read using a Fusion-TM plate reader (PerkinElmer, Waltham, USA).
# [2] = biological target: T1, D2LR; test: GαoB G protein activation (BRET); assay type: cell-based; design: expressed in transfected cells; conditions: for Emax / Emax Gao: relative to the maximal response of ropinirole; for change in potency over time in the GαoB activation assay: time points from 2 to 90 min;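 as to all read-outs here: Flp-In-CHO cells stably expressing D2LR, transiently transfected, agonist-stimulated in HBSS at 37 °C, net BRET read after coelenterazine, vehicle control subtracted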
# Method: G protein activation. Flp-In-CHO cells stably expressing the D2LR were seeded at a density of 2,000,000 cells per 10-cm dish and were transfected the following day using polyethylenimine as the transfection reagent. […] Twenty-four hours after transfection, the cells were plated into 96-well CulturPlates (PerkinElmer) and grown overnight. The cells were equilibrated in Hank's balanced salt solution at 37 °C before starting the experiment. The cells were stimulated with the agonists for the indicated timeframes when the BRET readings were captured. Coelenterazine (Promega) was added at a final concentration of 5 μM at least 3 min before measurement. […] Net BRET was determined by subtraction of the vehicle control from the agonist-induced response.
# [3] = biological target: T1, D2LR; test: β-Arrestin-2 recruitment (BRET); assay type: cell-based; design: expressed in transfected cells
# Method: β-Arrestin-2 recruitment. […] To assess β-arrestin-2 recruitment to the D2LR, the cells were transfected with 1 μg Rluc8-tagged D2LR, 4 μg YFP–β-arrestin-2 and 2 μg GRK2. […] The cells were incubated with Coelenterazine (Promega) at a final concentration of 5 μM for 5 min, followed by stimulation with the agonists for an additional 5 min before the BRET readings were captured.
# [4] = biological target: SNAP-tagged human dopamine D2L (Homo sapiens, UniProt P14416); test: Tag-lite PPHT-red competition kinetic binding (HTRF); conditions: PPHT-red tracer, Tag-lite; for koff: 100 μM GppNHp, 37 °C; for Kd: read-out: pKd (affinity determined from kinetic parameters) (converted)
# Sequence of SNAP-tagged human dopamine D2L (P14416 whole entry): as above
# Method: To terbium label the SNAP-CHO-D2L cells, cell culture medium was removed from the T175 cm^2 flasks containing confluent adherent SNAP-CHO-D2L cells. Twelve millilitres of Tag-lite labelling medium containing 100 nM of SNAP-Lumi4-Tb was added to the flask and incubated for 1 h at 37 °C under 5% CO2. Cells were then washed 2 × in 15 ml PBS (GIBCO, Invitrogen, Paisley, UK) to remove the excess of SNAP-Lumi4-Tb and detached using 5 ml of enzyme-free Hank's-based cell dissociation buffer (GIBCO, Invitrogen, Paisley, UK) and collected in a vial containing 5 ml of DMEM/Nutrient F-12 Ham, 2 mM glutamine supplemented 10% FCS. Cells were pelleted by centrifugation (5 min at 1,500 r.p.m.) and the pellets were frozen to −80 °C before preparation of membranes.
# All subsequent steps described were conducted at 4 °C, to avoid receptor degradation. Twenty millilitres of wash buffer (10 mM HEPES and 10 mM EDTA pH 7.4) was added to the pellet of terbium-labelled cells (equivalent to 1 × t175 cm^2). […] The supernatant was discarded and the pellet was homogenized and centrifuged as described above in wash buffer. The final pellet was suspended in ice-cold 10 mM HEPES and 0.1 mM EDTA pH 7.4, at a concentration of 5–10 mg m^−1. Protein concentration was determined by the bicinchoninic acid assay using BSA as a standard and aliquots maintained at −80 °C until required. Before their use, the frozen membranes were thawed and the membranes suspended in the assay buffer at a membrane concentration of 0.1 mg m^−1.
# GppNHp was included to remove the G protein-coupled population of receptors that can result in two binding sites in membrane preparations, because the Motulsky–Mahan model is only appropriate for ligands competing at a single site. […] Both fluorescent ligands and unlabelled compounds were diluted in the binding assay buffer.
# Kinetics acquisitions at intervals of 20 s were recorded using the standard settings of the reader for HTRF measurements. […] Specific binding was determined by subtracting the nonspecific HTRF ratio from the total HTRF ratio.
# To accurately determine association rate (kon) and dissociation rate (koff) values, the observed rate of association (kob) was calculated using at least four different concentrations of PPHT-red. The appropriate concentration of PPHT-red was incubated in a 384-well Optiplate with human SNAP-D2LR-CHO cell membranes (2 μg per well) in assay binding buffer at 37 °C (final assay volume, 40 μl). The degree of PPHT-red bound to the receptor was assessed at multiple time points by HTRF detection, to allow construction of association kinetic curves. The resulting data were globally fitted to the association kinetic model (equation (8)) to derive a single best-fit estimate for kon and koff as described under ‘Data analysis'.
# On the same 384-well Optiplate plate, the kinetic parameters of unlabelled ligand were assessed using a competition kinetic binding assay. This approach involves the simultaneous addition of both fluorescent ligand and competitor to receptor preparation so that at t=0 all receptors are unoccupied. […] The degree of PPHT-red bound to the receptor was assessed at multiple time points by HTRF detection. Nonspecific binding was determined as the amount of HTRF signal detected in the presence of spiperone (1 μM) and was subtracted from each time point. Each time point was conducted on the same 384-well plate incubated at 37 °C with shaking (100 r.p.m.) after every cycle.
# Data were globally fitted using equation (7), to simultaneously calculate kon and koff.
# [5] = test system: D2R; test: Simulation of receptor occupancy over time from kon and koff; conditions: simulation with a KD concentration of each agonist
# Excerpt: We extended these studies with a Tag-lite receptor binding assay using a D2R construct with an amino-terminal SNAP tag and the fluorescently labelled agonist (±)-4′-amino-2-(N-phenethyl-N-propyl)-amino-5-hydroxytetralin (PPHT). […] The association rate of a ligand is often thought to be diffusion limited. […] Using these kinetic parameters, we performed a simulation to estimate the receptor occupancy of a KD concentration of each agonist over time (Fig. 4e).
# Kinetic binding parameters of kon (a), koff (b) and t1/2 (c) were determined in a competition kinetic binding assay using a Tag-lite binding assay and the fluorescently labelled agonist PPHT as the tracer ligand (Supplementary Table 6). […] All values are expressed as mean±s.e.m. from three experiments. (e) The values of kon and koff obtained in the competition kinetic assay were used to simulate receptor occupancy over time using equation (9) and the concentration of ligand equivalent to its KD (see Supplementary Table 6).
# where Ymax reflects maximum binding of a concentration of ligand and kob is determined by equation (8).
# [6] = 5 minute timepoint, Flp-In-CHO-D2LR
# [7] = 5 minute timepoint, dopamine as reference agonist
# [8] = 5 minute timepoint, ND = no agonist activity detected
compound,measurement,setting,value
"CCCN(CCC)CCc1cccc2c1CC(=O)N2 [Ropinirole, ropinirole]",Log(τ/KA) pERK1/2,[1],8.44 ± 0.05
same,ΔLog(τ/KA) pERK1/2,[1],-0.12 ± 0.07
same,"alpahscreen assay to detect pERK1/2, counts",[1]; time 5 mins,22.2889 counts and 25.6765 counts and 28.0112 counts
same,"alpahscreen assay to detect pERK1/2, counts",[1]; time 7.5 mins,28.0112 counts and 22.6774 counts and 25.7734 counts
same,"alpahscreen assay to detect pERK1/2, counts",[1]; time 10 mins,21.5421 counts and 16.2572 counts and 11.748 counts and 11.8417 counts
same,"alpahscreen assay to detect pERK1/2, counts",[1]; time 20 mins,4.739 counts and 4.229 counts and 3.491 counts and 4.291 counts
same,"alpahscreen assay to detect pERK1/2, counts",[1]; time 30 mins,2.723 counts and 2.242 counts and 2.289 counts and 2.713 counts
same,Log(τ/KA) GαoB activation,[2],7.08 ± 0.08
same,pEC50 Gao,[2],7.33
same,ΔLog(τ/KA) GαoB activation,[2],-0.16 ± 0.11
same,EC50,[2]; 2 min,107 nM
same,Emax,[2]; 2 min,100%
same,EC50,[2]; 5 min,95.5 nM
same,Emax,[2]; 5 min,100%
same,EC50,[2]; 10 min,67.6 nM
same,Emax,[2]; 10 min,100%
same,Emax,[2]; 15 min,100%
same,EC50,[2]; 30 min,30.9 nM
same,Emax,[2]; 30 min,100%
same,EC50,[2]; 45 min,41.7 nM
same,Emax,[2]; 45 min,100%
same,EC50,[2]; 60 min,51.3 nM
same,Emax,[2]; 60 min,100%
same,EC50,[2]; 75 min,39.8 nM
same,Emax,[2]; 75 min,100%
same,EC50,[2]; 90 min,43.7 nM
same,Emax,[2]; 90 min,100%
same,change in potency over time in the GαoB activation assay,[2],no change in potency
same,Log(τ/KA) β-arrestin2,[3],6.48 ± 0.15
same,ΔLog(τ/KA) β-arrestin2,[3],0.14 ± 0.20
same,koff,[4]; read-out: koff (converted),0.0433 s⁻¹
same,Kd,[4],1860 nM
same,time to maximal receptor occupancy,[5],≤ 1 min
"CCCN1CCC[C@@H](c2cccc(O)c2)C1 [S-3PPP, (S)-(-)-3-(3-hydroxyphenyl)-N-propylpiperidine]","alpahscreen assay to detect pERK1/2, counts",[1]; time 7.5 mins,7.838 counts and 8.667 counts and 10.676 counts and 8.644 counts
same,"alpahscreen assay to detect pERK1/2, counts",[1]; time 10 mins,7.633 counts and 9.485 counts and 6.489 counts and 6.6386 counts
same,"alpahscreen assay to detect pERK1/2, counts",[1]; time 15 mins,3.509 counts and 3.085 counts and 2.82 counts and 2.443 counts
same,"alpahscreen assay to detect pERK1/2, counts",[1]; time 20 mins,2.3 counts and 2.162 counts and 3.001 counts and 1.823 counts
same,"alpahscreen assay to detect pERK1/2, counts",[1]; time 30 mins,1.331 counts and 1.287 counts and 2.069 counts and 1.34 counts
same,Emax Gao,[2]; 2 min,64 ± 5.6
same,Emax Gao,[2]; 5 min,68 ± 3.0
same,Log(τ/KA) GαoB activation,[2]; [6],6.40 ± 0.11
same,ΔLog(τ/KA) GαoB activation,[2]; [7],-0.84 ± 0.14
same,Emax Gao,[2]; 10 min,73 ±3.1
same,Emax Gao,[2]; 15 min,76 ± 2.2
same,Emax Gao,[2]; 30 min,74 ± 3.0
same,Emax Gao,[2]; 45 min,72 ± 2.2
same,Emax Gao,[2]; 60 min,72 ± 2.3
same,Emax Gao,[2]; 90 min,77 ± 2.6
same,change in potency over time in the GαoB activation assay,[2],twofold
same,time to maximal receptor occupancy,[5],≤ 1 min
"CN1CCN(c2cccc3[nH]c(=O)oc23)CC1 [Pardoprunox, pardoprunox]",Log(τ/KA) pERK1/2,[1],9.06 ± 0.08
same,ΔLog(τ/KA) pERK1/2,[1],0.50 ± 0.10
same,"alpahscreen assay to detect pERK1/2, counts",[1]; time 7.5 mins,13.2699 counts and 16.7995 counts and 15.0808 counts and 9.987 counts
same,"alpahscreen assay to detect pERK1/2, counts",[1]; time 10 mins,12.5176 counts and 12.8139 counts and 9.935 counts and 7.3291 counts
same,"alpahscreen assay to detect pERK1/2, counts",[1]; time 20 mins,2.97 counts and 3.103 counts and 2.735 counts and 1.953 counts
same,pEC50 Gao,[2]; 2 min,7.78
same,Emax Gao,[2]; 2 min,82 ± 4.5
same,pEC50 Gao,[2]; 5 min,7.77
same,Emax Gao,[2]; 5 min,79 ± 4.3
same,Log(τ/KA) GαoB activation,[2]; [6],7.70 ± 0.10
same,ΔLog(τ/KA) GαoB activation,[2]; [7],0.45 ± 0.13
same,pEC50 Gao,[2]; 10 min,8.00
same,Emax Gao,[2]; 10 min,76 ± 3.2
same,pEC50 Gao,[2]; 15 min,8.21
same,Emax Gao,[2]; 15 min,81 ± 2.8
same,pEC50 Gao,[2]; 30 min,8.70
same,Emax Gao,[2]; 30 min,84 ± 3.1
same,pEC50 Gao,[2]; 45 min,8.71
same,Emax Gao,[2]; 45 min,85 ± 3.1
same,pEC50 Gao,[2]; 60 min,8.64
same,Emax Gao,[2]; 60 min,86 ± 2.7
same,pEC50 Gao,[2]; 75 min,8.34
same,Emax Gao,[2]; 75 min,80 ± 4.9
same,pEC50 Gao,[2]; 90 min,8.58
same,Emax Gao,[2]; 90 min,87 ± 2.5
same,change in potency over time in the GαoB activation assay,[2],sixfold
same,Log(τ/KA) β-arrestin2,[3]; [8],6.80 ± 0.29
same,ΔLog(τ/KA) β-arrestin2,[3]; [7],0.47 ± 0.32
same,pKd (affinity determined from kinetic parameters),[4],7.75
same,koff,[4],0.038 ± 0.00933 s⁻¹
same,time to maximal receptor occupancy,[5],≤ 1 min
"O=c1[nH]c2cccc(N3CCN(Cc4cccc(-c5ccccc5)c4)CC3)c2o1 [Bifeprunox, bifeprunox]",Log(τ/KA) pERK1/2,[1],7.32 ± 0.10
same,ΔLog(τ/KA) pERK1/2,[1],-1.24 ± 0.11
same,"alpahscreen assay to detect pERK1/2, counts",[1]; time 10 mins,15.6263 counts and 16.6076 counts and 20.0466 counts and 28.1436 counts
same,"alpahscreen assay to detect pERK1/2, counts",[1]; time 15 mins,10.0482 counts and 8.477 counts and 14.6057 counts and 15.1817 counts
same,EC50,[2]; 2 min,52.5 nM
same,Emax,[2]; 2 min,94 ± 3.8%
same,EC50,[2]; 5 min,26.9 nM
same,Emax,[2]; 5 min,80%
same,Log(τ/KA) GαoB activation,[2]; [6],7.50 ± 0.10
same,ΔLog(τ/KA) GαoB activation,[2]; [7],0.26 ± 0.13
same,EC50,[2]; 10 min,12.9 nM
same,Emax,[2]; 10 min,77%
same,EC50,[2]; 15 min,7.59 nM
same,Emax,[2]; 15 min,79%
same,EC50,[2]; 30 min,4.07 nM
same,Emax,[2]; 30 min,87 ± 2.5%
same,EC50,[2]; 45 min,3.02 nM
same,Emax,[2]; 45 min,88 ± 2.4%
same,EC50,[2]; 60 min,3.24 nM
same,EC50,[2]; 75 min,2.19 nM
same,EC50,[2]; 90 min,2.14 nM
same,Emax,[2]; 90 min,90 ± 3.2%
same,Log(τ/KA) β-arrestin2,[3]; [8],5.75 ± 0.16
same,ΔLog(τ/KA) β-arrestin2,[3]; [7],-0.58 ± 0.21
same,koff,[4]; read-out: koff (converted),0.000167 s⁻¹
same,Kd,[4],0.0501 nM
same,time to maximal receptor occupancy,[5],> 90 min
